Assay results reported in ChEMBL document CHEMBL3774345, “Synthesis of new diarylamides with pyrimidinyl pyridine scaffold and evaluation of their anti-proliferative effect on cancer cell lines” (Bioorg Med Chem Lett, 2016).

Tests used:
Malme-3M [1] = experiment: Cytotoxicity against human MALME-3M cells assessed as cell growth at 10^-8 M after 24 hrs by SRB assay; assay type: functional; conditions: read-out: Activity
KM12 = experiment: Cytotoxicity against human KM12 cells assessed as cell growth at 10^-5 M after 24 hrs by SRB assay; assay type: functional; conditions: KM12, 24 h, read-out: Activity
[2] = Cytotoxicity against human SNB75 cells assessed as cell growth at 10^-8 M after 24 hrs by SRB assay; assay type: functional; conditions: SNB-75, 24 h, read-out: Activity
[3] = Cytotoxicity against human HCC2998 cells after 24 hrs by SRB assay; assay type: functional, cell-based; conditions: HCC 2998, 24 h
[4] = Cytotoxicity against human NCI-ADR-RES cells assessed as cell growth at 10^-8 M after 24 hrs by SRB assay; assay type: functional; conditions: read-out: Activity
T47D [5] = experiment: Cytotoxicity against human T47D cells after 24 hrs by SRB assay; assay type: functional
CCRF-CEM = experiment: Cytotoxicity against human CCRF-CEM cells assessed as cell growth at 10^-8 M after 24 hrs by SRB assay; assay type: functional; conditions: read-out: Activity
786-0 = experiment: Cytotoxicity against human 786-0 cells assessed as cell growth at 10^-7 M after 24 hrs by SRB assay; assay type: functional; conditions: 786-0, 24 h, read-out: Activity
[6] = Cytotoxicity against human OVCAR5 cells assessed as cell growth at 10^-5 M after 24 hrs by SRB assay; assay type: functional; conditions: OVCAR-5, 24 h, read-out: Activity
NCI-H522 = experiment: Cytotoxicity against human NCI-H522 cells assessed as cell growth at 10^-6 M after 24 hrs by SRB assay; assay type: functional; conditions: NCI-H522, 24 h, read-out: Activity
[7] = Cytotoxicity against human HL-60(TB) cells after 24 hrs by SRB assay; assay type: functional; conditions: HL-60, 24 h
SK-MEL-28 = experiment: Cytotoxicity against human SK-MEL-28 cells assessed as cell growth at 10^-5 M after 24 hrs by SRB assay; assay type: functional; conditions: SK-MEL-28, 24 h, read-out: Activity
Malme-3M [8] = experiment: Cytotoxicity against human MALME-3M cells assessed as cell growth at 10^-6 M after 24 hrs by SRB assay; assay type: functional; conditions: read-out: Activity
[9] = Cytotoxicity against human SNB75 cells after 24 hrs by SRB assay; assay type: functional, cell-based; conditions: SNB-75, 24 h
[10] = Cytotoxicity against human UO31 cells assessed as cell growth at 10^-4 M after 24 hrs by SRB assay; assay type: functional; conditions: UO-31, 24 h, read-out: Activity
[11] = Cytotoxicity against human COLO205 cells assessed as cell growth at 10^-5 M after 24 hrs by SRB assay; assay type: functional; conditions: COLO 205, 24 h, read-out: Activity
NCI-H23 = experiment: Cytotoxicity against human NCI-H23 cells after 24 hrs by SRB assay; assay type: functional; conditions: NCI-H23, 24 h
[12] = Cytotoxicity against human BT549 cells assessed as cell growth at 10^-4 M after 24 hrs by SRB assay; assay type: functional; conditions: BT-549, 24 h, read-out: Activity
[13] = Cytotoxicity against human HOP92 cells assessed as cell growth at 10^-4 M after 24 hrs by SRB assay; assay type: functional; conditions: HOP-92, 24 h, read-out: Activity
ACHN = experiment: Cytotoxicity against human ACHN cells assessed as cell growth at 10^-5 M after 24 hrs by SRB assay; assay type: functional; conditions: read-out: Activity
[14] = Cytotoxicity against human OVCAR3 cells assessed as cell growth at 10^-8 M after 24 hrs by SRB assay; assay type: functional; conditions: OVCAR-3, 24 h, read-out: Activity
[15] = Cytotoxicity against human PC3 cells assessed as cell growth at 10^-7 M after 24 hrs by SRB assay; assay type: functional; conditions: PC-3, 24 h, read-out: Activity
[16] = Cytotoxicity against human HOP92 cells assessed as cell growth at 10^-8 M after 24 hrs by SRB assay; assay type: functional; conditions: HOP-92, 24 h, read-out: Activity
T47D [17] = experiment: Cytotoxicity against human T47D cells assessed as cell growth at 10^-5 M after 24 hrs by SRB assay; assay type: functional; conditions: read-out: Activity
[18] = Cytotoxicity against human HL-60(TB) cells assessed as cell growth at 10^-8 M after 24 hrs by SRB assay; assay type: functional; conditions: HL-60, 24 h, read-out: Activity
[19] = Cytotoxicity against human NCI-ADR-RES cells after 24 hrs by SRB assay; assay type: functional
[20] = Cytotoxicity against human MOLT4 cells assessed as cell growth at 10^-6 M after 24 hrs by SRB assay; assay type: functional; conditions: MOLT-4, 24 h, read-out: Activity
[21] = Cytotoxicity against human SF268 cells assessed as cell growth at 10^-6 M after 24 hrs by SRB assay; assay type: functional; conditions: SF-268, 24 h, read-out: Activity
T47D [22] = experiment: Cytotoxicity against human T47D cells assessed as cell growth at 10^-4 M after 24 hrs by SRB assay; assay type: functional; conditions: read-out: Activity
[23] = Cytotoxicity against human SW620 cells assessed as cell growth at 10^-5 M after 24 hrs by SRB assay; assay type: functional; conditions: SW-620, 24 h, read-out: Activity
SK-MEL-5 = experiment: Cytotoxicity against human SK-MEL-5 cells assessed as cell growth at 10^-4 M after 24 hrs by SRB assay; assay type: functional; conditions: SK-MEL-5, 24 h, read-out: Activity
[24] = Cytotoxicity against human UO31 cells assessed as cell growth at 10^-8 M after 24 hrs by SRB assay; assay type: functional; conditions: UO-31, 24 h, read-out: Activity
[25] = Cytotoxicity against human TK10 cells after 24 hrs by SRB assay; assay type: functional; conditions: TK-10, 24 h
U-251 = experiment: Cytotoxicity against human U251 cells assessed as cell growth at 10^-4 M after 24 hrs by SRB assay; assay type: functional; conditions: U-251, 24 h, read-out: Activity
[26] = Cytotoxicity against human OVCAR8 cells assessed as growth inhibition at 10 uM after 24 hrs by SRB assay; assay type: functional; conditions: OVCAR-8, 24 h, read-out: GI
[27] = read-out: LC50 (the source's name)
[28] = read-out: pLC50 (the source's name) (converted)

O=C(Nc1cc(-c2cccnc2)nc(NCCCN2CCOCC2)n1)c1cc(Br)cc(C(F)(F)F)c1
growth at 0.01 µM (Malme-3M [1]): 99% | growth at 10 µM (KM12): 14% | growth at 0.01 µM [2]: 88% | GI50 [3]: 1.78 µM | CC50 [3, 27]: 6.89 µM | TGI ([3]; read-out: TGI): 3.49 µM | CC50 [3, 28]: 6.92 µM | TGI ([3]; read-out: pTGI (converted)): 3.47 µM | growth at 0.01 µM [4]: 100% | GI50 (T47D [5]; read-out: GI50): 3.72 µM | CC50 (T47D [5]; [27]): 48.5 µM | TGI (T47D [5]; read-out: TGI): 16.1 µM | GI50 (T47D [5]; read-out: pGI50 (converted)): 3.72 µM | CC50 (T47D [5]; [28]): 49 µM | TGI (T47D [5]; read-out: pTGI (converted)): 16.2 µM | growth at 0.01 µM (CCRF-CEM): 100% | growth at 0.1 µM (786-0): 91% | growth at 10 µM [6]: 40% | growth at 1 µM (NCI-H522): 83% | GI50 ([7]; read-out: GI50): 2.15 µM | CC50 [7, 27]: 90.1 µM | TGI ([7]; read-out: TGI): 5.86 µM | GI50 ([7]; read-out: pGI50 (converted)): 2.14 µM | CC50 [7, 28]: 89.1 µM | TGI ([7]; read-out: pTGI (converted)): 5.89 µM | growth at 10 µM (SK-MEL-28): -75% | growth at 1 µM (Malme-3M [8]): 90% | IC50 [9]: 1.52 µM | GI50 ([9]; read-out: GI50): 1.52 µM | CC50 [9, 27]: 8.46 µM | TGI ([9]; read-out: TGI): 3.59 µM | GI50 ([9]; read-out: pGI50 (converted)): 1.51 µM | CC50 [9, 28]: 8.51 µM | TGI ([9]; read-out: pTGI (converted)): 3.55 µM | growth at 100 µM [10]: -90% | growth at 10 µM [11]: -79% | GI50 (NCI-H23; read-out: GI50): 3.55 µM | CC50 (NCI-H23; [27]): 46.1 µM | TGI (NCI-H23; read-out: TGI): 15 µM | GI50 (NCI-H23; read-out: pGI50 (converted)): 3.55 µM | CC50 (NCI-H23; [28]): 45.7 µM | TGI (NCI-H23; read-out: pTGI (converted)): 15.1 µM | growth at 100 µM [12]: -86% | growth at 100 µM [13]: -94% | growth at 10 µM (ACHN): 5% | growth at 0.01 µM [14]: 105% | growth at 0.1 µM [15]: 95% | growth at 0.01 µM [16]: 80% | growth at 10 µM (T47D [17]): 21% | growth at 0.01 µM [18]: 100% | GI50 ([19]; read-out: GI50): 2.6 µM | CC50 [19, 27]: 42.9 µM | TGI ([19]; read-out: TGI): 9.11 µM | GI50 ([19]; read-out: pGI50 (converted)): 2.57 µM | CC50 [19, 28]: 42.7 µM | TGI ([19]; read-out: pTGI (converted)): 9.12 µM | growth at 1 µM [20]: 102% | growth at 1 µM [21]: 85% | growth at 100 µM (T47D [22]): -83% | growth at 10 µM [23]: -34% | growth at 100 µM (SK-MEL-5): -100% | growth at 0.01 µM [24]: 95% | GI50 ([25]; read-out: GI50): 5.07 µM | CC50 [25, 27]: 43.3 µM | TGI ([25]; read-out: TGI): 18.1 µM | GI50 ([25]; read-out: pGI50 (converted)): 5.13 µM | CC50 [25, 28]: 43.7 µM | TGI ([25]; read-out: pTGI (converted)): 18.2 µM | growth at 100 µM (U-251): -93%

COCCCNc1nc(NC(=O)c2cc(OC)cc(OC)c2)cc(-c2cccnc2)n1
inhibition of growth at 10 µM [26]: 20.7%
